Results published in patent US20220288038A1, “ABCC11 INHIBITOR” (THE UNIVERSITY OF TOKYO, priority 2019, published 2022).
Entries after “also recorded” stand apart in the source; their conditions may differ.

How the values were obtained:
human ABCC11 = biological target: T1, human ABCC11 (Homo sapiens, UniProt Q96J66); experiment: in vitro DHEAS vesicle transport assay with ABCC11-expressing plasma membrane vesicles; assay type: biochemical; details: ATP-dependent transport of 100 nM [3H]-DHEAS into ABCC11-expressing 293A plasma membrane vesicles, 5 min, 37° C., febuxostat at indicated concentrations
T1 construct: The complete human ABCC11 cDNA; expressed in transfected cells; host or cells: 293A cells (HEK293-derived), adenovirus-infected; plasma membrane vesicles prepared from them
Excerpt: (§1) Using an in vitro transport system with ABCC11-expresssing plasma. membrane vesicles (FIG. 1A), we investigated the effect of the test compound on ABCC11 function. To confirm the experimental system, we first examined the time-dependent increase in ATP-dependent dehydroepiandrosterone sulfate (DHEAS)—an ABCC11 substrate (Chen et al., 2005)—transport into the ABCC11-expressing plasma membrane vesicles (FIG. 1B).
(§2) Critical materials and resources used in this study were summarized in Supplementary Table S1. […]
Membrane vesicles were prepared from 293A cells infected with the ABCC11-expressing or EGFP-expressing (control) adenovirus as described previously (Toyoda et al., 2017). […] Protein concentration of the plasma membrane vesicles was quantified using a BCA Protein Assay Kit (Pierce, Rockford, Ill., USA) with bovine serum albumin (BSA) as a standard according to the manufacturer's protocol.
Experiments to study the in vitro transport of [1,2,6,7-^3H(N)]-dehydroepiandrosterone sulfate (DHEAS) (Perkin-Elmer Japan, Tokyo, Japan), an ABCC11 substrate (Chen et al., 2005), into ABCC11-expressing and control vesicles were performed by using a rapid filtration technique (Toyoda et al., 2017; Toyoda et al., 2019) with a minor modification. […] Then, the radioactivity derived from the incorporated DHEAS was measured. […]

[1] = biological target: T2, human ABCC11 WT (NCBI accession NM_033151) (Homo sapiens, UniProt Q96J66); experiment: Inhibition of ABCC11-mediated ATP-dependent [3H]-DHEAS transport into ABCC11-expressing plasma membrane vesicles (vesicle transport assay, rapid filtration); assay type: biochemical
T2 construct: made in house; host or cells: plasma membrane vesicles from HEK293-derived 293A cells infected with ABCC11-expressing recombinant adenovirus
Excerpt: as §1, §2
FIG. 1. […] The DHEAS transport into membrane vesicles was measured at the indicated periods with or without ATP; the ATP-dependent DHEAS transport was calculated by subtracting the DHEAS transport activity in the absence of ATP from that in the presence of ATP. Data are expressed as the mean±SD. n=3. […] The DHEAS transport activities were measured in the presence of febuxostat at the indicated concentrations for 5 min. Data are expressed as the mean±SD. n=4. […]
Critical materials and resources used in this study were summarized in Supplementary Table S1. […] After the purification by a CsCl gradient ultracentrifugation method, the adenovirus titer was determined by using an. […]

T1 sequence (Q96J66 whole entry): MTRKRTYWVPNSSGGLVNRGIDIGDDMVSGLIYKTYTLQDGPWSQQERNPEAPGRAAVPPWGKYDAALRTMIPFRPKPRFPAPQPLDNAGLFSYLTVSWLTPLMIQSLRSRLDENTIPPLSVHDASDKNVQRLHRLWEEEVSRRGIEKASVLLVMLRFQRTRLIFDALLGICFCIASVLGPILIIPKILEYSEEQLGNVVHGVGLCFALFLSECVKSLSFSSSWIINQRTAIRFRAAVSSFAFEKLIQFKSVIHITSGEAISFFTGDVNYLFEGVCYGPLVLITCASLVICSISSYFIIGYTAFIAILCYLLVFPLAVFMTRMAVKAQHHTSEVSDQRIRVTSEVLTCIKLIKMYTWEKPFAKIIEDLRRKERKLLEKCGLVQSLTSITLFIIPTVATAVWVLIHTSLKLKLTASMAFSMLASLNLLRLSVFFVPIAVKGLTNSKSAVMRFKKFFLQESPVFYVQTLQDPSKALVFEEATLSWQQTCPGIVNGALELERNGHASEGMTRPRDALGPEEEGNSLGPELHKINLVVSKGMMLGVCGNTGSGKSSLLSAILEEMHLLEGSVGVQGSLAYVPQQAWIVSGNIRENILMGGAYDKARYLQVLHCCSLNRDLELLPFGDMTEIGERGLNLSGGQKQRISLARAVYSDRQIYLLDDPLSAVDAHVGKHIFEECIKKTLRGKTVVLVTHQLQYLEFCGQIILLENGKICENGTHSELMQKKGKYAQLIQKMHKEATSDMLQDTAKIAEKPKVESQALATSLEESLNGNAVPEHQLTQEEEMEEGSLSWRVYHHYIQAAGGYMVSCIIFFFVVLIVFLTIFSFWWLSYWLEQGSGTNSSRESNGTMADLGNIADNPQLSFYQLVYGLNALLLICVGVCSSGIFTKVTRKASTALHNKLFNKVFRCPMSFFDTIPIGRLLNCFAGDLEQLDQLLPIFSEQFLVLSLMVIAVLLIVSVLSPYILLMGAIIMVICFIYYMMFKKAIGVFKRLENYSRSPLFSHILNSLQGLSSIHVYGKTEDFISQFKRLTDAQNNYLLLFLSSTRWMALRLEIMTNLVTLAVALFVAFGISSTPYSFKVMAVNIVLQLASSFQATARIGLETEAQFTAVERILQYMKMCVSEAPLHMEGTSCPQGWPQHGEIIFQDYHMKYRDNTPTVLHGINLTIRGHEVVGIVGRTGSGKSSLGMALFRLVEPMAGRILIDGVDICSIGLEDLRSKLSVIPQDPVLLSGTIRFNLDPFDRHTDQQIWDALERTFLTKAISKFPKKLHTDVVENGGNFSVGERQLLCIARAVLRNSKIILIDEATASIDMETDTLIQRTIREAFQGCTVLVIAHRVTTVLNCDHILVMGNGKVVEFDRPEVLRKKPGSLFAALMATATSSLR
T2 sequence (Q96J66 whole entry): as above

With Cc1nc(-c2ccc(OCC(C)C)c(C#N)c2)sc1C(=O)O [febuxostat] the “inhibition of ABCC11-mediated DHEAS transport” value (human ABCC11) was “Dose-dependent inhibition; also recorded: inhibited ABCC11”.

Cc1nc(-c2ccc(OCC(C)C)c(C#N)c2)sc1C(=O)O [Febuxostat] was tested, and the IC50 [1] was 3.26 µM.
